From ChEMBL document CHEMBL4000218, “Explicit treatment of active-site waters enhances quantum mechanical/implicit solvent scoring: Inhibition of CDK2 by new pyrazolo[1,5-a]pyrimidines” (Eur J Med Chem, 2017) come the findings set out here.

Usually IC50 stands for the concentration that inhibits the measured activity by half.

The test has as its target Cyclin-dependent kinase 2/cyclin E1 (Homo sapiens, UniProt P24941). The experiment in a line: Inhibition of CDK2/cyclin E (unknown origin) expressed in baculovirus infected insect Sf9 cells using histone H1 as substrate in presence of [gamma-33P]ATP.
In the case of `NC(=O)c1ccc(-c2ccc(-c3cc(NCc4cccnc4)n4ncc(Br)c4n3)cc2)c(O)c1`, the IC50 is 15 nM. Take `CN(C)C(=O)c1ccc(-c2ccc(-c3cc(NCc4cccnc4)n4ncc(Br)c4n3)cc2)cc1`: the IC50 was determined as 64 nM.

On to `OCc1ccc(-c2ccc(-c3cc(NCc4cccnc4)n4nccc4n3)cc2)cc1`, for which the IC50 was 6110 nM. For `NC(=O)c1ccc(-c2ccc(-c3cc(NCc4cccnc4)n4nccc4n3)cc2)cc1O`, the IC50 was found to be 2670 nM. Regarding `Nc1ccc(-c2ccc(-c3cc(NCc4cccnc4)n4nccc4n3)cc2)cc1`, the concentration for half-maximal inhibition (IC50) stood at 4910 nM. For `CCc1cnn2c(NCc3cccnc3)cc(-c3ccc(-c4ccc(C(N)=O)cc4)cc3)nc12` the value was 18 nM; for `c1ccc(-c2ccc(-c3cc(NCc4cccnc4)n4nccc4n3)cc2)cc1`, 12600 nM; for `NC(=O)c1ccc(-c2ccc(-c3cc(NCc4cccnc4)n4nccc4n3)cc2)cc1`, 3940 nM. For the compound `NC(=O)c1ccc(-c2ccc(-c3cc(NCc4cccnc4)n4ncc(Br)c4n3)cc2)cc1O`, the IC50 is 52 nM.

With `CN(C)C(=O)c1ccc(-c2ccc(-c3cc(NCc4cccnc4)n4nccc4n3)cc2)cc1`, the IC50 was found to be 1970 nM.

Take `CCc1cnn2c(NCc3cccnc3)cc(-c3ccc(-c4ccc(CO)cc4)cc3)nc12`: the IC50 is 130 nM.

`N#CCCc1cc(-c2ccc(-c3cc(NCc4cccnc4)n4nccc4n3)cc2)ccc1C(N)=O`: the IC50 stood at 5450 nM.

For `COc1cc(-c2ccc(-c3cc(NCc4cccnc4)n4nccc4n3)cc2)ccc1C(N)=O`, the IC50 stood at 5530 nM. Regarding `N#CCCc1cc(-c2ccc(-c3cc(NCc4cccnc4)n4ncc(Br)c4n3)cc2)ccc1C(N)=O`, the IC50 came to 53 nM. For the compound `Nc1ccc(-c2ccc(-c3cc(NCc4cccnc4)n4ncc(Br)c4n3)cc2)cc1`, the IC50 was 140 nM.

Take `Brc1cnn2c(NCc3cccnc3)cc(-c3ccc(-c4ccccc4)cc3)nc12`: the IC50 came out at 490 nM. The figure for `CCc1cnn2c(NCc3cccnc3)cc(-c3ccc(-c4ccc(C(N)=O)c(O)c4)cc3)nc12` is 31 nM. In the case of `Oc1ccc(-c2ccc(-c3cc(NCc4cccnc4)n4ncc(Br)c4n3)cc2)cc1`, the IC50 was 140 nM.

`OCc1ccc(-c2ccc(-c3cc(NCc4cccnc4)n4ncc(Br)c4n3)cc2)cc1`: the IC50 worked out at 45 nM.

Consider `NC(=O)c1ccc(-c2ccc(-c3cc(NCc4cccnc4)n4ncc(Br)c4n3)cc2)cc1`, for which the IC50 was 37 nM.

With `Oc1ccc(-c2ccc(-c3cc(NCc4cccnc4)n4nccc4n3)cc2)cc1`, the IC50 amounted to 3860 nM.
